What was measured:
[1] = target: [RsiG + WhiG]; set-up: method as in PMID 25171413, PMID 31810759; conditions: cited from earlier work
[2] = system: His6-GlgX; assay: DRaCALA with [32P]-c-di-GMP, wild-type GlgX; format: binding, Streptomyces venezuelae
Experimental: Fig. 1 GlgX binds c-di-GMP. a Quantification of c-di-GMP in S. venezuelae cell extracts using LC-MS/MS. Cells were harvested during late vegetative growth (8–10 h), transition to sporulation (12–16 h), and sporulation (18–20 h). Data are presented as the mean of biological replicates ±SD (n = 3). […] Source data are provided in the Source data file. c [^32P]-c-di-GMP binds to GlgX in DRaCALA assay indicated by dark spots in the center of the nitrocellulose membrane. For competition, excess (100 µM) of unlabeled c-di-GMP, c-di-AMP, or GTP was added to the reaction containing [^32P]-c-di-GMP and GlgX.
To determine if the interaction between Vnz29170 (herein called GlgX) and c-di-GMP is direct, we purified an N-terminally His6-tagged GlgX protein and performed nano differential scanning fluorimetry (nanoDSF) thermal shift assays. […] In addition, we used differential radial capillary action of ligand assays (DRaCALA), which allows visualization of protein-bound radiolabeled ligand as a central spot after the application of the protein-ligand mix onto nitrocellulose. Using DRaCALA we confirmed that GlgX from S. venezuelae binds ^32P-labeled c-di-GMP.
For DRaCALA assays, purified His6-GlgX (15 μg) was mixed with 0.5 μl undiluted [^32P]-c-di-GMP (42 nM) (Hartmann Analytic GmbH, Braunschweig) in binding buffer (25 mM Tris pH 8; 150 mM NaCl; 2.5% (v/v) glycerol; 5 mM MgCl2) and the reaction was incubated at rt for 5 min. For competition assays, 100 μM nonlabeled nucleotides were added to the samples and incubated at rt for 5 min prior to the addition of [^32P]-c-di-GMP. Reactions (10 μl) were spotted on the same nitrocellulose membrane (Roth), air dried for 10 min and analyzed via phosphorimaging.

[3] = target: BldD; set-up: method as in PMID 25171413, PMID 31810759; conditions: cited from earlier work
[4] = target: GlgX (Streptomyces venezuelae, UniProt F2RAW5); assay: Fluorescence polarization (FP) binding, wild-type GlgX; conditions: summary value of FP (Fig. 5c) and MST (Supplementary Fig. 8); read-out: affinity of GlgX for c-di-GMP
Description: Fig. 5 Structure of the S. venezuelae GlgX-c-di-GMP complex. a Ribbon diagram of the S. venezuelae GlgX-c-di-GMP complex with one GlgX subunit colored cyan and the other salmon. Shown as sticks are the c-di-GMP molecules bound at each end of the antiparallel dimer. […] There was clear density for each c-di-GMP molecule. b Close up of the GlgX-c-di-GMP binding interaction. Key residues mediating contacts to the c-di-GMP are shown as sticks and labeled. Hydrogen bonds from GlgX residues that specify binding to the guanine are indicated by yellow dashed lines. c Fluorescence polarization (FP) binding isotherm showing interaction of GlgX, GlgXE47A-R49A and GlgXR438A-R579A for F-c-di-GMP in red, green and blue respectively. Also shown is the binding isotherm for GlgX binding to F-c-di-AMP in black. […] The y-axis and x-axis are millipolarization (mP) units and GlgX concentration (μM), respectively. Shown are representative binding curves for each. The experiments were performed in technical triplicates and the error between measurements reported. Error bars represent SD of the measurements. Source data are provided in the Source data file.
Thus, we used this F-tagged c-di-GMP in fluorescence polarization (FP) studies to quantify the interaction between GlgX and c-di-GMP. […] To ensure that the presence of the fluorescent tag was not impacting the GlgX interaction with c-di-GMP we used microscale thermophoresis (MST) to quantify c-di-GMP binding to GlgX. […] But to further probe the structural model we created GlgXE47A-R49A and GlgXR438A-R579A mutants and performed FP studies with these proteins.
To measure c-di-GMP binding to GlgX and GlgX mutants, 2′-O-(6-[Fluoresceinyl]aminohexylcarbamoyl)-cyclic diguanosine monophosphate (2′-Fluo-AHC-c-di-GMP) (BioLog), was used as a fluoresceinated reporter ligand. This molecule is conjugated via a nine atom spacer to one of the c-di-GMP 2′ hydroxyl groups. […] 2′-O-(6-[Fluoresceinyl]aminohexylcarbamoyl)-cyclic diadenosine monophosphate (2′-Fluo-AHC-c-di-AMP) (BioLog) was also used in binding studies to assess specificity of GlgX for c-di-GMP. […]

Sequence of GlgX (F2RAW5 entry or part of it): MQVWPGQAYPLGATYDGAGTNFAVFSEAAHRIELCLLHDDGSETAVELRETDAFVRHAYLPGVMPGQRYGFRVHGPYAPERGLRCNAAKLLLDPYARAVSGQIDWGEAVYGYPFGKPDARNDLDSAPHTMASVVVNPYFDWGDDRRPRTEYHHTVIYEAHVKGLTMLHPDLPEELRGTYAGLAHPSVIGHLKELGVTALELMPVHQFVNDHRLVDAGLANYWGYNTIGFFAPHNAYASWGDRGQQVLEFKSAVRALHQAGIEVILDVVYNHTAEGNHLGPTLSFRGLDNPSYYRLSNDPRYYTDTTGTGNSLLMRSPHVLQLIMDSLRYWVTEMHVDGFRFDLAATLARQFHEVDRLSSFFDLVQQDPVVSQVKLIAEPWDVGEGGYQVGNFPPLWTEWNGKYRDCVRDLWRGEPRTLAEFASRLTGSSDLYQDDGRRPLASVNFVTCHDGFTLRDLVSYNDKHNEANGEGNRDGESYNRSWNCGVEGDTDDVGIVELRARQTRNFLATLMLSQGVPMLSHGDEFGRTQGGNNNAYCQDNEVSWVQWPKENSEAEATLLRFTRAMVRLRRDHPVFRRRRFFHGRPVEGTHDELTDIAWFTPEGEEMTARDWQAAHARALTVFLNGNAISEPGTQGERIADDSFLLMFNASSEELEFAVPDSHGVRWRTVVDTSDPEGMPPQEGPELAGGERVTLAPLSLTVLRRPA

For `Nc1nc2c(ncn2[C@@H]2O[C@@H]3CO[P@](=O)(O)O[C@H]4[C@@H](O)[C@H](n5cnc6c(=O)[nH]c(N)nc65)O[C@@H]4CO[P@](=O)(O)O[C@H]3[C@H]2O)c(=O)[nH]1` [c-di-GMP, bis-(3′−5′)-cyclic diguanosine monophosphate], the Kd [1] is given as 0.39 ± 0.05 µM, the “binding of 32P-labeled c-di-GMP in DRaCALA” value ([2]; 15 µg His6-GlgX, [32P]-c-di-GMP) is given as “binds” and the “competition with 32P-c-di-GMP for binding to GlgX” value ([2]; excess (100 µM) unlabeled nucleotide) is given as “competed”. For the same compound, the Kd [3] was 2.5 ± 0.6 µM and the Kd [4] was about 8 µM.

Source: paper PMC9530166, “Allosteric regulation of glycogen breakdown by the second messenger cyclic di-GMP” (Nature Communications, 2022)
